Laboratory results: patent publication US10167276B2, “Compounds and methods for inhibiting JAK” (Dizal (Jiangsu) Pharmaceutical Co., Ltd., priority 2015, dated 2019)

What was measured:
JAK2 = JAK2 (Homo sapiens (Human), UniProt O60674); assay: Enzyme inhibition studies, recombinant JAK2 (Caliper peptide phosphorylation); format: biochemical; conditions: recombinant JAK2 (amino acids 831-1132); assayed at ATP Km (15 μM) and 5 mM ATP, table does not say which
Method: (§1) Enzyme inhibition studies were performed using recombinant JAK1 (amino acids 866-1154, Life Technologies, #PV4774, Carlsbad, Calif.), JAK2 (amino acids 831-1132), or JAK3 (amino acids 781-1124) under buffer conditions of 50 mM HEPES pH 7.3, 1 mM DTT, 0.01% Tween® 20, 50 μg/mL BSA, and 10 mM MgCl2. JAK enzyme was expressed as an N-terminal GST fusion in insect cells and purified by glutathione-affinity and size-exclusion chromatographies. […] Phosphorylated and unphosphorylated peptides were separated and quantified by a Caliper LC3000 system (Caliper Life Sciences, MA) for calculating percent inhibition.

JAK1 = JAK1 (Homo sapiens (Human), UniProt P23458); assay: Enzyme inhibition studies, recombinant JAK1 (Caliper peptide phosphorylation); format: biochemical; conditions: recombinant JAK1 (amino acids 866-1154); assayed at ATP Km (55 μM) and 5 mM ATP, table does not say which
Method: as §1

JAK3 = JAK3 (Homo sapiens (Human), UniProt P52333); assay: Enzyme inhibition studies, recombinant JAK3 (Caliper peptide phosphorylation); format: biochemical; conditions: recombinant JAK3 (amino acids 781-1124); assayed at ATP Km (3 μM) and 5 mM ATP, table does not say which
Method: as §1

[1] = test system: STAT3 phosphorylation in NCI-H1975 cells; assay: Cellular pSTAT3 assay in NCI-H1975 cells; format: cell-based; conditions: Homo sapiens, 2 hours with compound
Method: NCI-H1975 cells were plated onto Costar #3701 96 or 384 well tissue-culture treated plates at 5,000 cells/well in 30 uL medium (RPMI, 10% FBS, supplemented with L-glutamine) and incubated overnight at 37° C. in 5% CO2. Phospho STAT3 signal was quantitated utilizing Cell Signaling Technology #7146B Pathscan […] STAT3 antibody pair kit, following manufacturer's instructions.
Cells were dosed with compound and incubated at 37° C. in 5% CO2 for 2 hours, after which medium and compound were aspirated and cells lysed with 35 uL cold 1×Cell Signaling Lysis buffer and chilled at 4° C. for 1-2 hours. Lysate was incubated on STAT3 capture plates at 4° C. overnight, washed 3× with Tris-Buffered Saline with 0.05% Tween® 20 (TBST), then […] STAT3 detection antibody was applied for 2 hours. Following washing with TBST (3×), HRP-secondary antibody was applied for 2 hours. After additional washing, signal was detected using TMB and Stop solution and read at 450 nm using Tecan Infinite M100.

Sequence of JAK3 (P52333 781-1124): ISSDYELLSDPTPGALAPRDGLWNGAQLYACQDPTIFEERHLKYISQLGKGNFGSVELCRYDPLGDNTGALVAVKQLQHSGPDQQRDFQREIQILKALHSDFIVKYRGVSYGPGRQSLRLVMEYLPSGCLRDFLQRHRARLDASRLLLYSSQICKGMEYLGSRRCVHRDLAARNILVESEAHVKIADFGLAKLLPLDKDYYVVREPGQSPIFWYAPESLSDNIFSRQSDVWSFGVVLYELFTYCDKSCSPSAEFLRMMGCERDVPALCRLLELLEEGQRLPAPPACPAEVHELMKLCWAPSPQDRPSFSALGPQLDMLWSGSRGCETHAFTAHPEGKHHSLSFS
Sequence of JAK2 (O60674 831-1132): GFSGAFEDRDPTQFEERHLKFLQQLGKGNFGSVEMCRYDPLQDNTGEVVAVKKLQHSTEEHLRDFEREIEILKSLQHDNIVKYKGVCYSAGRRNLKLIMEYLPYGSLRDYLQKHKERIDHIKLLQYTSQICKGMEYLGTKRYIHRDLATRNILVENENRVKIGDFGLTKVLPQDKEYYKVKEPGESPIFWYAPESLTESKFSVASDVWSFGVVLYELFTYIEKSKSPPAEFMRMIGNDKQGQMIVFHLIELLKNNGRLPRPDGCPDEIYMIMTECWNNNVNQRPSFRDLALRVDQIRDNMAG
Sequence of JAK1 (P23458 866-1154): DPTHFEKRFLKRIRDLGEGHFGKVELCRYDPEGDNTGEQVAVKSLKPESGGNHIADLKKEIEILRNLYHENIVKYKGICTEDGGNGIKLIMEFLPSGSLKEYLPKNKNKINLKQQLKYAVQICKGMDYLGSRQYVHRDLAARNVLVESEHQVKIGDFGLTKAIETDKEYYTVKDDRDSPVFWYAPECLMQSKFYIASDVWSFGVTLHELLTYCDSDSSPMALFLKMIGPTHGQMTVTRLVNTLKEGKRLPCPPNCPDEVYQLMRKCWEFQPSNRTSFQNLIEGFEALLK

Row | SMILES | IC50 [1] [nM] | IC50 (JAK2) [nM] | IC50 (JAK1) [nM] | IC50 (JAK3) [µM]
1 | CCOc1nn(C)cc1Nc1ncc(C)c(-c2c[nH]c3c(NC(=O)[C@@H](COC)N4CCN(C)CC4)cccc23)n1 [Example 64, (2R)-N-(3-{2-[(3-ethoxy-1-methyl-1H-pyrazol-4-yl)amino]-5-methylpyrimidin-4-yl}-1H-indol-7-yl)-3-methoxy-2-(4-methylpiperazin-1-yl)propanamide] | 112 | 2040 | < 5 | > 30
2 | COc1nn(C)cc1Nc1ncc(C)c(-c2c[nH]c3c(NC(=O)[C@H](C)N4CCN(C)CC4)cccc23)n1 [Example 33, (2S)-N-{3-[2-[(3-methoxy-1-methyl-1H-pyrazol-4-yl)amino]-5-methylpyrimidin-4-yl}-1H-indol-7-yl)-2-(4-methylpiperaizn-1-yl)propanamide] | 308 |  |  | 
3 | COc1nn(C)cc1Nc1ncc(C)c(-c2c[nH]c3c(NC(=O)[C@@H](C)N4CCN(CCO)CC4)cccc23)n1 [Example 15, (2R)-2-[4-(2-hydroxyethyl)piperazin-1-yl]-N-(3-{2-[(3-methoxy-1-methyl-1H-pyrazol-4-yl)amino]-5-methylpyrimidin-4-yl}-1H-indol-7-yl)propanamide] | 131 |  |  | 
4 | CCOc1nn(C)cc1Nc1ncc(C)c(-c2c[nH]c3c(NC(=O)[C@@H](C)N4CCN(C)[C@@H](C)C4)cccc23)n1 [Example 31a, (2R)-2-[(3S)-3,4-dimethylpiperazin-1-yl]-N-(3-{2-[(3-ethoxy-1-methyl-1H-pyrazol-4-yl)amino]-5-methylpyrimidin-4-yl}-1H-indol-7-yl)propanamide] | 153 |  |  | 
5 | CC[C@H](C(=O)Nc1cccc2c(-c3ccnc(Nc4cn(C)nc4OC)n3)c[nH]c12)N1CCN(C)CC1 [Example 47, (2R)-N-(3-{2-[(3-Methoxy-1-methyl-1H-pyrazol-4-yl)amino]pyrimidin-4-yl}-1H-indol-7-yl)-2-(4-methylpiperazin-1-yl)butanamide] | 136 |  |  | 
6 | COc1nn(C)cc1Nc1ncc(F)c(-c2c[nH]c3c(NC(=O)[C@@H](C)N4CCN(C)C[C@@H]4C)cccc23)n1 [Example 7a, (2R)-2-[(3S)-2,4-dimethylpiperazin-1-yl]-N-(3-{5-fluoro-2-[(3-methoxy-1-methyl-1H-pyrazol-4-yl)amino]pyrimidin-4-yl}-1H-indol-7-yl)propanamide] | 509 |  |  | 
7 | CCOc1nn(C)cc1Nc1ncc(C)c(-c2c[nH]c3c(NC(=O)[C@H](COC)N4CCN(C)CC4)cccc23)n1 [Example 65, (2S)-N-(3-{2-[(3-ethoxy-1-methyl-1H-pyrazol-4-yl)amino]-5-methylpyrimidin-4-yl}-1H-indol-7-yl)-3-methoxy-2-(4-methylpiperazin-1-yl)propanamide] | 1030 | > 30000 | 2530 | > 30
8 | COc1nn(C)cc1Nc1ncc(C)c(-c2c[nH]c3c(NC(=O)[C@@H](C)N4CCN(C)CC4)cccc23)n1 [Example 34, (2R)-N-(3-{2-[(3-Methoxy-1-methyl-1H-pyrazol-4-yl)amino]-5-methylpyrimidin-4-yl}-1H-indol-7-yl)-2-(4-methylpiperazin-1-yl)propanamide] | 128 |  |  | 

Now from value to compound, other results behind:

Row | IC50 [1] [nM] | SMILES | IC50 (JAK2) [nM] | IC50 (JAK1) [nM] | IC50 (JAK3) [µM]
9 | > 3000 | COC[C@@H](C(=O)Nc1cccc2c(-c3nc(Nc4cn(C)nc4C)ncc3F)c[nH]c12)N1CCN(C)CC1 [Example 54, (2S)-N-{3-[2-[(1,3-dimethyl-1H-pyrazol-4-yl)amino]-5-fluoropyrimidin-4-yl}-1H-indol-7-yl)-3-methoxy-2-(4-methylpiperazin-1-yl)propanamide] |  |  | 
10 | 70.3 | COc1nn(C)cc1Nc1ncc(C)c(-c2c[nH]c3c(NC(=O)[C@@H](C)N4CCN(C)[C@@H](C)C4)cccc23)n1 [Example 14, (2R)-2-[(3S)-3,4-dimethylpiperazin-1-yl]-N-(3-{2-[(3-methoxy-1-methyl-1H-pyrazol-4-yl)amino]-5-methylpyrimidin-4-yl}-1H-indol-7-yl)propanamide] |  |  | 
11 | 104 | CCOc1nn(C)cc1Nc1ncc(C)c(-c2c[nH]c3c(NC(=O)[C@@H](CC)N4CCN(C)CC4)cccc23)n1 [Example 62, (2R)-N-(3-{2-[(3-ethoxy-1-methyl-1H-pyrazol-4-yl)amino]-5-methylpyrimidin-4-yl}-1H-indol-7-yl)-2-(4-methylpiperazin-1-yl)butanamide] |  |  | 
12 | 87.2 | COc1nn(C)cc1Nc1ncc(F)c(-c2c[nH]c3c(NC(=O)[C@@H](C)N4CCN(C)[C@@H](C)C4)cccc23)n1 [Example 5, (2R)-2-[(3S)-3,4-dimethylpiperazin-1-yl]-N-(3-{5-fluoro-2-[(3-methoxy-1-methyl-1H-pyrazol-4-yl)amino]pyrimidin-4-yl}-1H-indol-7-yl)propanamide] |  |  | 
13 | 246 | CCOc1nn(C)cc1Nc1ncc(F)c(-c2c[nH]c3c(NC(=O)[C@@H](C)N4CCN(C)C[C@H]4C)cccc23)n1 [Example 12, (2R)-2-[(2R)-2,4-dimethylpiperazin-1-yl]-N-(3-{2-[(3-ethoxy-1-methyl-1H-pyrazol-4-yl)amino]-5-fluoropyrimidin-4-yl}-1H-indol-7-yl)propanamide] |  |  | 
14 | 548 | CC[C@@H](C(=O)Nc1cccc2c(-c3nc(Nc4cn(C)nc4OC)ncc3F)c[nH]c12)N1CCN(C)CC1 [Example 52, (2S)-N-(3-{5-fluoro-2-[(3-methoxy-1-methyl-1H-pyrazol-4-yl)amino]pyrimidin-4-yl}-1H-indol-7-yl)-2-(4-methylpiperaizn-1-yl)butanamide] |  |  | 
15 | 116 | CCc1nn(C)cc1Nc1ncc(C)c(-c2c[nH]c3c(NC(=O)[C@@H](C)N4CCN(C)CC4)cccc23)n1 [Example 55, (2R)-N-(3-{2-[(3-ethyl-1-methyl-1H-pyrazol-4-yl)amino]-5-methylpyrimidin-4-yl}-1H-indol-7-yl)-2-(4-methylpiperazin-1-yl)propanamide] |  |  | 
